Source: patent publication US12606540B2, “Triazolone compound” (MEDSHINE DISCOVERY INC., priority 2020, dated 2026)
Read-outs that look alike come from different tables or passages of the source.

Experiments:
[1] = test system: influenza virus A/Weiss/43 (H1N1); assay: Influenza virus cytopathic effect (CPE) experiment in MDCK cells; type: cell-based; conditions: unidentified influenza virus, H1N1, 120 h, 5 days incubation, CCK8
MDR1 (P-glycoprotein) = assay: Permeability evaluation on MDR1-MDCK II cell line; conditions: dog, MDCK-MDR1, pH 7.4
DHODH enzyme = DHODH enzyme (Homo sapiens, UniProt Q02127); assay: DHODH enzyme inhibitory activity in vitro (resazurin fluorescence); type: biochemical; conditions: 5 nM DHODH, 15 μM L-DHO, 80 μM Resazurin
Description: The DHODH inhibitory activity of the compounds was detected by the following experimental method, and the experimental results are as shown in Table 1.
DHODH uses flavin mononucleotide FMN to catalyze the oxidation of dihydrooratic acid DHO to produce oratic acid, while the re-oxidation of FMN requires the participation of coenzyme CoQ. In the experiment of detecting the DHODH enzyme activity, CoQ was replaced by Resazurin dye as the final electron acceptor in the enzyme activity reaction. Resazurin solution is blue, and the resorufin generated after reduction has red fluorescence, and the fluorescence signal can be detected under the 535 nm of excitation wavelength and the 590 nm of emission wavelength. The components of the reaction buffer used in the experiment were 100 mM Hepes pH 7.0, 150 mM NaCl, 0.3% CHAPS, 0.5 mg/mL BSA, 0.1 μM FMN and 1% DMSO. The final concentration of DHODH enzyme in the reaction system was 5 nM, and the final concentration of substrate L-DHO was 15 μM, the final concentration of indicator Resazurin was 80 μM. The components of the reaction stop buffer were 100 mM Hepes pH 7.0 and 5 mM Orotate. The specific method was as follows: 2-fold final concentration of the DHODH enzyme solution was mixed with the compound, incubated at room temperature for 20 min, 2-fold final concentration of the substrate mixture solution of L-DHO and resazurin was added and reacted, incubated at room temperature away from light for 45 min. Then the reaction was stopped by adding 2-fold final concentration of the reaction stop buffer to the reaction system, and incubated at room temperature for 10 min, the fluorescence signal of the reaction system was detected with EnVision under the condition of Ex/Em=535/590 nm.

[2] = test system: human peripheral blood mononuclear cells; assay: Proliferation inhibition of peripheral blood mononuclear cells (flow cytometry); type: cell-based; conditions: PBMC, PHA-M 5 μg/mL stimulation, 48 hours
Experimental: Flow cytometry was used to detect cell proliferation of human peripheral blood mononuclear cells.
• Cell complete medium: 445 mL of RPMI1640 cell culture+50 mL of fetal bovine serum+5 mL of double antibody • Buffer 1: 9.9 mL of phosphate buffer+0.1 mL of 10% bovine serum protein • Buffer 2: 10 mL of fetal bovine serum+490 mL of phosphate buffer 3.2 Cell Thawing • 3.2.1 20 mL of cell complete medium was added to a 50 mL of centrifuge tube and pre-heated in a 37° C. water bath for 5 minutes; • 3.2.2 the cell cryotubes were removed from the liquid nitrogen storage tank and placed on dry ice for 5-10 minutes to allow the liquid nitrogen to evaporate fully; • 3.2.3 the cell cryotubes were clamped with forceps and placed in the water bath, and shaken gently to thaw the frozen cells quickly; • 3.2.4 the thawed cells were transferred to the pre-heated cell complete medium with a pipette, centrifuged at 350 g for 5 min, then the supernatant was discarded, and the cells was resuspended by adding 10 mL of phosphate buffer; • 3.2.5 counting by cell counter, and cell viability and cell count were recorded. 3.3 Cell Labeling • 3.3.1 Cell proliferation labeling solution (CellTrace™ Violet, 1:1000 dilution) was prepared • 3.3.2 the above mixture was centrifuged at 350 g for 5 minutes, and the supernatant was discarded, then the cells (20×10^6/mL) were resuspended by adding Buffer 1, and the resuspended cells were gently blown by pipette, and an equal volume of cell proliferation labeling solution (prepared in 3.3.1) was added, and gently blown well by pipette; • 3.3.3 incubating in a 5% CO2, 37° C. cell incubator for 18 minutes; • 3.3.4 the 5-fold volume of cell complete medium was added and leaved at room temperature for 5 minutes to terminate the staining reaction; • 3.3.5 the above mixture was centrifuged at 350 g for 5 minutes, and the supernatant was discarded, then the cells were resuspended by adding 10 mL of cell complete medium, counted by cell counter, and cell viability and cell count were recorded; • 3.3.6 the above mixture was centrifuged at 350 g for 5 minutes, and the supernatant was discarded, then the corresponding volume of cell complete medium was added according to the cell counting results, and the density of the resuspended cells was 2×10^6/mL and was to be used. 3.4 Cell Proliferation Stimulation • 3.4.1 50 μL/well prepared cell suspension (1×10^5 cells/well), 50 μL of 4×PHA-M (the final concentration is 5 μg/mL), 50 μL of 4×test compound, 50 μL of cell complete medium were added to the wells of 96-well cell culture plate, and the corresponding control group was set up; (total volume of the reaction system is 200 μL) • 3.4.2 the cell culture plate was placed and incubated in a 5% CO2, 37° C. cell incubator for 48 hours. 3.5 Cell Proliferation Detection • 3.5.1 the above mixture was centrifuged at 350 g for 5 minutes and the supernatant was transferred to a new cell culture plate and stored at −80° C.; • 3.5.2 200 μL of Buffer 2 was add to the wells of the culture plate, and the above mixture was centrifuged at 350 g and the supernatant was discarded; • 3.5.3 cell dead or living staining solution (7-AAD, 1:100 dilution) was prepared with Buffer 2; • 3.5.4 100 μL/well of dead or living staining solution was added, and gently blown and mixed well by pipette, and stained at room temperature for 10 min; • 3.5.5 cell proliferation was detected by flow cytometry analyzer and analyzed by Flowjo software.

[3] = Pharmacokinetic evaluation in mice (IV and PO); type: in vivo, female Balb/c mice; conditions: for MRT last: read-out: MRT0-last
Experimental: Experiment process: 0.04 mg/mL of a clarified solution of the test compound in 5% DMSO/10% Solutol solution/85% water was injected into female Balb/c mice (overnight fasting, 7-9 weeks of age) via tail vein, with dosage of 0.2 mg/kg. 0.1 mg/mL of the test compound in 5% DMSO/10% Solutol solution/0.2% Tween80/84.8% water was administered by gavage to female Balb/c mice (overnight fasting, 7-9 weeks of age), with dosage of 1 mg/kg. About 30 μL of blood was collected from the jugular vein at 0.0833, 0.25, 0.5, 1.0, 2.0, 4.0, 8.0, 10 and 24 h and from the tail vein at 0.25, 0.5, 1.0, 2.0, 4.0, 8.0 and 24 h after administration for both groups of animals, and were placed in anticoagulation tubes with EDTA-K2, and the blood was separated by centrifugation to obtain plasma. Plasma concentrations were detected by LC-MS/MS, and relevant pharmacokinetic parameters were calculated using WinNonlin™ Version 6.3 (Pharsight, Mountain View, CA) pharmacokinetic software with a non-compartmental model linear logarithmic trapezoid method.

[4] = female, Balb/c, mouse, plasma, IV 0.2 mg/kg
[5] = female, Balb/c, mouse, plasma, PO 1 mg/kg

Sequence of DHODH enzyme (Q02127 whole entry): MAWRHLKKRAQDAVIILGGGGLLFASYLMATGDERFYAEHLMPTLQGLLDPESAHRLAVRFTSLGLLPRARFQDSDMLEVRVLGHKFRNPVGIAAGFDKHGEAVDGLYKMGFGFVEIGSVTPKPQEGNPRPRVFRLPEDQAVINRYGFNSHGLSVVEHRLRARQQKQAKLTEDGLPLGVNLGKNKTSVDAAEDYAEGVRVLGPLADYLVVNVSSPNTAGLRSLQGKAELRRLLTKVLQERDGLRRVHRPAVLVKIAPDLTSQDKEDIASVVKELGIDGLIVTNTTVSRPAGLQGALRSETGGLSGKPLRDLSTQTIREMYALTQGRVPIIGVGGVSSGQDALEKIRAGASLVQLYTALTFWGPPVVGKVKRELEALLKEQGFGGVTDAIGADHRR

SMILES: CCn1c(CO)nn(-c2cc(O[C@@H](C)C(F)(F)F)c(/C(F)=C/c3cnccc3Cl)cc2F)c1=O [Compound 28]
- EC50 [1]: 43 nM
- Papp A→B at 150 min, 2 μM (MDR1 (P-glycoprotein)): 8.65 ×10⁻⁶ cm/s
- Papp B→A at 150 min, 2 μM (MDR1 (P-glycoprotein)): 10.7 ×10⁻⁶ cm/s
- Papp at 150 min, 2 μM (MDR1 (P-glycoprotein)): > 5.5 ×10⁻⁶ cm/s
- efflux ratio at 150 min, 2 μM (MDR1 (P-glycoprotein)): 1.24
- IC50 (DHODH enzyme): 2.4 nM
- IC50 [2]: 8.4 nM

SMILES: CCn1c(CO)nn(-c2cc(O[C@@H](C)C(F)(F)F)c(/C(F)=C/c3cccc(NC(=O)C4CC4)c3)cc2F)c1=O [Compound 29]
- IC50 (DHODH enzyme): 4.7 nM

SMILES: CCn1c(CO)nn(-c2cc(O[C@@H](C)C(F)(F)F)c(/C(F)=C/c3ncccc3C(F)F)cc2F)c1=O [Compound 30]
- IC50 (DHODH enzyme): 8 nM

SMILES: CCn1c(CO)nn(-c2cc(O[C@@H](C)C(F)(F)F)c(/C(F)=C/c3cnccc3C(F)F)cc2F)c1=O [Compound 32]
- IC50 (DHODH enzyme): 3.9 nM

SMILES: CCn1c(CO)nn(-c2cc(O[C@@H](C)C(F)(F)F)c(/C=C/c3c(F)cccc3Cl)cc2F)c1=O [Compound 35]
- EC50 [1]: 42 nM
- IC50 (DHODH enzyme): 2.6 nM

SMILES: CCn1c(CO)nn(-c2nc(O[C@@H](C)C(F)(F)F)c(/C=C/c3c(F)cccc3Cl)cc2F)c1=O [Compound 36]
- EC50 [1]: 10 nM
- IC50 (DHODH enzyme): 1.5 nM
- IC50 [2]: 5.9 nM

SMILES: CCn1c(CO)nn(-c2cc(O[C@@H](C)C(F)(F)F)c(/C=C/c3cccnc3Cl)cc2F)c1=O [Compound 37]
- IC50 (DHODH enzyme): 31.8 nM

SMILES: CCn1c(CO)nn(-c2cc(O[C@@H](C)C(F)(F)F)c(/C=C/c3cccnc3C(F)F)cc2F)c1=O [Compound 38]
- IC50 (DHODH enzyme): 26.5 nM

SMILES: CCn1c(CO)nn(-c2cc(O[C@@H](C)C(F)(F)F)c(/C(F)=C/c3cccnc3C(F)F)cc2F)c1=O [Compound 39]
- Tlast ([3]; IV 0.2 mg/kg): 24.0 h
- F ([3]; PO 1 mg/kg): 97.4%
- Tlast ([3]; PO 1 mg/kg): 24.0 h
- AUC(0-inf) [3, 4]: 2.24 µM·h
- AUC(0-t) [3, 4]: 1.84 µM·h
- clearance [3, 4]: 2.86 mL/min/kg
- half-life [3, 4]: 10.4 h
- MRT last [3, 4]: 7.83 h
- Vd ([3]; female, Balb/c, mouse, plasma, IV 0.2 mg/kg, read-out: VdSS): 2.31 L/kg
- AUC(0-inf) [3, 5]: 10.6 µM·h
- AUC(0-t) [3, 5]: 8.95 µM·h
- Tmax [3, 5]: 1.5 h
- half-life [3, 5]: 8.86 h
- MRT last [3, 5]: 8.67 h
- C0 ([3]; female, Balb/c, mouse, IV 0.2 mg/kg, plasma): 419 nM
- Cmax ([3]; female, Balb/c, mouse, PO 1 mg/kg, plasma): 787 nM
- EC50 [1]: 42 nM
- Papp A→B at 150 min, 2 μM (MDR1 (P-glycoprotein)): 10.1 ×10⁻⁶ cm/s
- Papp B→A at 150 min, 2 μM (MDR1 (P-glycoprotein)): 13.9 ×10⁻⁶ cm/s
- Papp at 150 min, 2 μM (MDR1 (P-glycoprotein)): > 5.5 ×10⁻⁶ cm/s
- efflux ratio at 150 min, 2 μM (MDR1 (P-glycoprotein)): 1.37
- IC50 (DHODH enzyme): 1.3 nM
- IC50 [2]: 14.4 nM

SMILES: CCn1c(CO)nn(-c2cc(O[C@@H](C)C(F)(F)F)c(/C(F)=C/c3cccnc3)cc2F)c1=O [Compound 40]
- IC50 (DHODH enzyme): 7.3 nM
